# Reference: ChEMBL document CHEMBL1201862, “PubChem BioAssay data set” (2004)
#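 Growth conditions: 96-well plates. Treatment: test compound, 48 hours, 5 concentrations. Analysis: linear interpolation between bracketing concentrations; unreached endpoints set to highest concentration. GI50: concentration for 50% inhibition of growth.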 Activity calls are given as the source filed them. Cut-off read from the data, not from the text of the source: active = GI50 up to about 1.1 µM and inactive = higher.
# Key:
# Assay in all cases: NCI-60 cell line screen, 48 h
# [1] = tested on: UO-31
# [2] = tested on: SNB-19
# [3] = tested on: IGROV-1
# [4] = tested on: A549
# [5] = tested on: HCC 2998
# [6] = tested on: SNB-75
# [7] = tested on: LOX IMVI
# [8] = tested on: HCT-15
# [9] = tested on: COLO 205
# [10] = tested on: MDA-MB-435
# [11] = tested on: OVCAR-8
# [12] = tested on: SK-MEL-28
# [13] = tested on: DU-145
# [14] = tested on: Malme-3M
# [15] = tested on: 786-0
# [16] = tested on: SF-295
# [17] = tested on: U-251
# [18] = tested on: SK-MEL-2
# [19] = tested on: OVCAR-5
# [20] = tested on: RXF 393
Compound,GI50 [1],GI50 [2],GI50 [3],GI50 [4],GI50 [5],GI50 [6],GI50 [7],GI50 [8] [µM],GI50 [9],GI50 [10],GI50 [11],GI50 [12],GI50 [13],GI50 [14],GI50 [15],GI50 [16],GI50 [17],GI50 [18],GI50 [19],GI50 [20]
O=S(=O)(NC1CCCCC1)c1ccc2c(c1)OCCOCCOCCOCCO2,> 100 µM (inactive),> 100 µM (inactive),> 100 µM (inactive),> 100 µM (inactive),> 100 µM (inactive),> 100 µM (inactive),> 100 µM (inactive),> 100,> 100 µM (inactive),> 100 µM (inactive),> 100 µM (inactive),> 100 µM (inactive),> 100 µM (inactive),> 100 µM (inactive),> 100 µM (inactive),> 100 µM (inactive),,,,
Cc1c(-c2ccccc2)[nH]c2cn[nH]c(=O)c12,80 µM (inactive),> 100 µM (inactive),> 100 µM (inactive),> 100 µM (inactive),> 100 µM (inactive),,70.6 µM (inactive),55.3,> 100 µM (inactive),> 100 µM (inactive),> 100 µM (inactive),> 100 µM (inactive),> 100 µM (inactive),> 100 µM (inactive),> 100 µM (inactive),41 µM (inactive),> 100 µM (inactive),90.8 µM (inactive),> 100 µM (inactive),
Nc1ccc(-c2cssc2=S)cc1,35.9 µM (inactive),> 100 µM (inactive),50.7 µM (inactive),50.6 µM (inactive),29.2 µM (inactive),,41.1 µM (inactive),45.5,42.2 µM (inactive),35.1 µM (inactive),45.7 µM (inactive),49.7 µM (inactive),,34 µM (inactive),49 µM (inactive),33.3 µM (inactive),40.7 µM (inactive),27.1 µM (inactive),> 100 µM (inactive),29.8 µM (inactive)
O=C1CCC2(CC1)Cc1ccccc1C2O (stereo not given),> 100 µM (inactive),> 100 µM (inactive),> 100 µM (inactive),> 100 µM (inactive),> 100 µM (inactive),< 0.01 µM (active),> 100 µM (inactive),> 100,> 100 µM (inactive),,> 100 µM (inactive),> 100 µM (inactive),> 100 µM (inactive),> 100 µM (inactive),> 100 µM (inactive),> 100 µM (inactive),> 100 µM (inactive),> 100 µM (inactive),> 100 µM (inactive),
